These results are taken from US20100196290A1, “COMPOSITIONS COMPRISING BETULONIC ACID” (Valtion teknillinen tutkimuskeskus, priority 2006, published 2010).

One data set relates to Caco-2 cells. Put plainly: Cytotoxicity tests, viability of Caco-2 cells (LDH, WST-1 and ATP methods). The conditions noted are these: 500 μM, exposure 24 hours. The data set is classed as cell-based, human. As to the method:
Caco-2 cells (cell line used as a model for human intestine) were introduced in a 96 well plate in an amount of 35 000 cells (for LDH method), 45 000 cells (for WST-1 method), or 25 000 cells (for ATP method) per well. After cultivation of 24 hours, the cells were exposed to the compounds being tested for 24 hours by adding said compounds to the culture medium to give a concentration of 500 μM (as stock solutions in DMSO).
The influence of the compounds on the viability of the cells was measured by three different methods. Polymyxin B was used as the control. […] The amount of LDH in the sample due to exposure was quantified by means of an enzymatic reaction using the INT (iodonitrotetrazolium) colour reagent wherein the coloured reaction product formed was determined photometrically at 490 nm. In the WST-1 method, the metabolic activity of the cells after exposure was measured using the WST-1 reagent. Metabolic activity of a cell results in the generation of a coloured product from the reagent, said product being then used to evaluate the viability of the cells by photometric measurements (absorbance at 440 nm). In the ATP method, the amount of ATP within cells decreasing rapidly due to cellular damage was measured. In the method, ATP was luminometrically quantified by means of the ATP dependent luciferase-luciferin reaction. […]
A general note: Formazan colour is commonly taken as a measure of viable cells.

The next data set concerns bacteria. Kind of data set: Antibacterial activity, overall statement on the examples. Format: cell-based. To be noted: concentration of 1 μg/ml. From the text:
Erythromycin was used as the control.

Each structure is given as a SMILES string.

Take `C=C(C)[C@@H]1CC[C@]2(C(=O)O)CC[C@]3(C)[C@H](CC[C@@H]4[C@@]5(C)CCC(=O)C(C)(C)[C@@H]5CC[C@]43C)[C@@H]12` [Yhdiste 5, betulonic acid]: the cytotoxicity result in the data set on Caco-2 cells is on record as “low cytotoxicity”. The antibacterial activity result in the data set on bacteria is on record as “considerable antibacterial activity”.

Regarding `C=C(C)[C@@H]1CC[C@]2(COC(=O)c3ccccc3NC(C)=O)CC[C@]3(C)C(CCC4[C@@]5(C)CC[C@H](O)C(C)(C)C5CC[C@]43C)C12` (stereo partly drawn) [Yhdiste 29, 28-N-acetylanthranilic acid ester of betulin], the antibacterial activity result with bacteria is on record as “considerable antibacterial activity”.
